The values below come from PubChem BioAssay AID2060506 (Molecular Pharmacology Branch, DTP, NCI, 2025).

The structures appear in SMILES notation. Several values for one entry are separate records, joined by “and”; a condition that tells them apart may be missing. Identical values can stand only once.

For this assay, the system named is 598228-144-R-J1-PDC complex spheroid viability. Briefly: Anticancer human tumor 598228-144-R-J1-PDC patient-derived serous endometrial adenocarcinoma cell line growth inhibition [GQUAD]. As to conditions: for viability, T/C: stronger effect = lower value; for IC50: curve of compound. From the text:
DNA G-quadruplex Stabilizer Agents in Combinations in Complex Spheroids
A high-throughput screen of multi-cell type tumor spheroids was designed to identify active combinations of DNA G-quadruplex stabilizer agents and targeted small molecules. Complex spheroids include a stromal component modeled by human endothelial cells (HUVEC) and fibroblasts modeled by human mesenchymal stem cells (MSCs). The concentration ranges selected for each drug and investigational agent were based upon clinically achievable concentrations if the clinical Cmax of the agent was known.
Compounds. The drugs and investigational agents: pidnarulex (CX-5461; NSC782164), APTO-253 (NSC789042), BRACO-19 (NSC847499), peposertib (NSC802822), ceralasertib (NSC780249), elimusertib (NSC800525), camonsertib (NSC841442), AZD-1390 (NSC803789), olaparib (NSC753686), talazoparib (NSC767125), ART-558 (NSC835418), sotorasib (NSC818433), MRTX-1133 (NSC836407), SN-38 (NSC673596), topotecan (NSC609699), etoposide (NSC141540), doxorubicin (NSC123127), gemcitabine (NSC613327), 5-fluorouracil (NSC19893), paclitaxel (NSC125973), vemurafenib (NSC761431), panobinostat (NSC761190), R-306465 (JNJ-16241199; NSC773264), adavosertib (NSC754352), TP-3654 (NSC805149), carboplatin (NSC241240), KSQ-4279 (NSC840948), and staurosporine (NSC755774) were obtained from the National Cancer Institute (NCI) Developmental Therapeutics Program Chemical Repository (34). The FDA-approved anticancer drug set is available from the NCI Developmental Therapeutics Program. […] The stock solutions were prepared in dimethyl sulfoxide (DMSO, Sigma-Aldrich, St. Louis, MO, cat. D2650) at 800-fold the tested concentration and stored at -70 degrees C prior to their use. All drugs and investigational agents were tested over a range starting from a high concentration at or near the clinical Cmax and decreasing in half-log increments. If the clinical Cmax for an agent had not been determined, the highest concentration tested was 10 microM.
2.3 Cell Culture. All cells were maintained in an incubator at 37 degrees C and 5% CO2 with 95% humidity. The PDC lines were cultured according to standard operating procedures established by the NCI PDMR. All PDCs were thawed and cultured in Matrigel-coated flasks prepared with a working solution of 1X Ham's F-12 nutrient mix, without supplementation (Invitrogen, cat. 11765054), 100 U/mL penicillin-streptomycin (Invitrogen, cat. 15140122), and 2.5% Matrigel (Corning Inc., cat. 354248) for the first three passages. The 857933-349-R-J2-PDC line was cultured in 6C/Colon 1B media, which includes advanced DMEM/F-12 (Thermo Fisher Scientific, cat. 12634028), 10 mM HEPES (Thermo Fisher Scientific, cat. 15630080), 1X GlutaMAX supplement (Thermo Fisher Scientific, cat. 35050061), 0.1 mg/mL primocin (InvivoGen, cat. ant-pm-2), 10% defined fetal bovine serum, heat inactivated (HyClone Laboratories Inc., cat. SH30070.03HI), 50% L-WRN conditioned media (ATCC, cat. CRL-3276), 1.25 mM N-Acetyl-L-cysteine (Sigma-Aldrich, cat. A9165), 10 mM nicotinamide (Sigma-Aldrich, cat. N0636), 1X B-27 supplement (Thermo Fisher Scientific, cat. 17504044), 1X N-2 supplement (Thermo Fisher Scientific, cat. 17502048), 10 microM Y-27632 dihydrochloride (Tocris Bioscience, cat. 1254), and 50 ng/mL human EGF recombinant protein (Thermo Fisher Scientific, cat. PHG0311). The 485176-168-R4-J1-PDC line was cultured in Panc media, which includes all 6C/Colon 1B media components plus 100 ng/mL human FGF-10 (Thermo Fisher Scientific, cat. 100-26), 500 nM SB-431542 (Selleckchem, cat. S1067), and gastrin (Tocris, cat. 3006).
[…]
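Note: spheroids exposed to the agents for one week before reading.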
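Throughout, for viability, T/C: percent of vehicle DMSO control viability so 100% = untreated growth.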

As usually defined, the viability, T/C is the result in the treated group divided by that in the control group, in per cent. The term IC50 denotes the concentration that gives 50% inhibition. In the case of `C#Cc1c(F)ccc2cc(O)cc(-c3ncc4c(N5CC6CCC(C5)N6)nc(OCC56CCCN5CC(F)C6)nc4c3F)c12` (stereo not given), the IC50 is above 10000 nM. Further, the viability, T/C (compound 0.0316 µM) was 103% and 107% and 96.2%. The viability, T/C (compound 0.1 µM) was 98.9% and 118% and 97.6%. In addition, the viability, T/C (compound 0.316 µM) was 106% (2×) and 98.1%. The viability, T/C (compound 1 µM) is 100% and 101% and 92.4%. In addition, under “compound 3.16 µM”, the viability, T/C was 96.8% and 99.4% and 96.6%. Further, the viability, T/C (compound 10 µM) is 84.1% and 105% and 83.3%.

In the case of `C=CC(=O)N1CCN(c2nc(=O)n(-c3c(C)ccnc3C(C)C)c3nc(-c4c(O)cccc4F)c(F)cc23)C(C)C1` (stereo not given), the IC50 was above 10000 nM. For the same compound, where the note is “compound 0.0316 µM”, the viability, T/C is 89% and 91.5% and 95%. For the same compound, the viability, T/C (compound 0.1 µM) was 106% and 107% and 112%. The viability, T/C (compound 0.316 µM) is 102% and 127% and 100%. For the same compound, for the setting “compound 1 µM”, the viability, T/C was 155% and 112% (2×). In addition, the viability, T/C (compound 3.16 µM) was 145% and 124% and 111%. The viability, T/C (compound 10 µM) was 113% and 108% and 106%.

On to `CC(=O)O[C@H]1C(=O)[C@@]2(C)[C@H]([C@H](OC(=O)c3ccccc3)[C@]3(O)C[C@H](OC(=O)[C@H](O)[C@@H](NC(=O)c4ccccc4)c4ccccc4)C(C)=C1C3(C)C)[C@]1(OC(C)=O)CO[C@@H]1C[C@@H]2O`, for which the IC50 was 80.4 nM and < 31.6 nM and 50.4 nM. In addition, the viability, T/C (compound 0.0316 µM) was 57.9% and 47.5% and 53%. In addition, for the setting “compound 0.1 µM”, the viability, T/C is 41.1% and 46.1% and 48.6%. Also, where the note is “compound 0.316 µM”, the viability, T/C was 52.3% and 37.7% and 45%. For the same compound, where the note is “compound 1 µM”, the viability, T/C was 42.3% and 36.8% and 38.9%. The viability, T/C (compound 3.16 µM) is 47.5% (2×) and 40.5%. Also, the viability, T/C (compound 10 µM) is 49.1% and 43% and 39.1%.

For `CC(C)n1c(=O)n(C)c2cnc3cc(F)c(-c4ccc(OCCCN5CCCCC5)nc4)cc3c21`, the 50% inhibitory concentration (IC50) is above 10000 nM. Moreover, the viability, T/C (compound 0.0316 µM) was 109% and 90.8% and 106%. For the same compound, the viability, T/C (compound 0.1 µM) was 91.9% and 85.2% and 84.2%. Also, the viability, T/C (compound 0.316 µM) was 101% and 92.4% and 109%. The viability, T/C (compound 1 µM) was 115% and 111% and 96.7%. For the setting “compound 3.16 µM”, the viability, T/C is 94.2% and 74.5% and 67.8%. Moreover, the viability, T/C (compound 10 µM) is 60.8% and 56.7% and 68.5%.

In the case of `CC1COCCN1c1cc(-c2ccnn2C)c2ccnc(-c3ccn[nH]3)c2n1` (stereo not given), the IC50 is 140 nM and 91.6 nM and 79 nM. For the same compound, the viability, T/C (compound 0.0316 µM) is 76% and 72.5% and 81.6%. The viability, T/C (compound 0.1 µM) is 52.9% and 44.2% and 42.1%. Also, the viability, T/C (compound 0.316 µM) was 37.5% and 47.8% and 36.9%. The viability, T/C (compound 1 µM) is 43.9% and 35.5% and 42.2%. Moreover, the viability, T/C (compound 3.16 µM) was 50% and 39.5% and 40.7%. For the same compound, where the note is “compound 10 µM”, the viability, T/C was 39.6% and 33.4% and 38.9%.

`CC1COCCN1c1cc(C2(O)CC3CCC(C2)O3)c2cnn(-c3ccn[nH]3)c2n1` (stereo not given): the IC50 was 101 nM and 134 nM and 154 nM. Moreover, for the setting “compound 0.0316 µM”, the viability, T/C is 68.6% and 72.1% and 69.9%. The viability, T/C (compound 0.1 µM) was 40% and 42.8% and 48.9%. Further, the viability, T/C (compound 0.316 µM) is 41.1% and 40% and 42.5%. For the same compound, where the note is “compound 1 µM”, the viability, T/C is 33% and 40.1% and 34.1%. Moreover, the viability, T/C (compound 3.16 µM) is 22.5% and 33.5% and 32.9%. For the same compound, where the note is “compound 10 µM”, the viability, T/C is 11.1% and 15% and 15.1%.

As to `CC1COCCN1c1cc(C2(S(C)(=N)=O)CC2)nc(-c2ccnc3[nH]ccc23)n1` (stereo not given), the IC50 is 5530 nM and 5370 nM and 9390 nM. For the same compound, the viability, T/C (compound 0.0316 µM) was 91.8% and 116% and 77.8%. The viability, T/C (compound 0.1 µM) was 83.7% and 108% and 99.1%. Moreover, under “compound 0.316 µM”, the viability, T/C was 88.9% and 94.8% and 83.4%. The viability, T/C (compound 1 µM) was 77.9% and 77.5% and 88.2%. Moreover, the viability, T/C (compound 3.16 µM) is 60.3% and 46.7% and 97.7%. Further, the viability, T/C (compound 10 µM) is 39.3% and 49.6% and 47.7%.

In the case of `CCCS(=O)(=O)Nc1ccc(F)c(C(=O)c2c[nH]c3ncc(-c4ccc(Cl)cc4)cc23)c1F`, the IC50 was 8880 nM and 6560 nM and 7610 nM. For the same compound, the viability, T/C (compound 0.0316 µM) was 122% and 103% and 107%. Further, the viability, T/C (compound 0.1 µM) was 93.3% and 86.4% and 114%. Moreover, the viability, T/C (compound 0.316 µM) was 104% and 110% and 102%. In addition, where the note is “compound 1 µM”, the viability, T/C is 106% and 110% and 130%. Further, for the setting “compound 3.16 µM”, the viability, T/C is 100% and 90.5% and 112%. Further, the viability, T/C (compound 10 µM) is 44.2% and 26.5% and 30.6%.

As for `CC[C@@]1(O)C(=O)OCc2c1cc1n(c2=O)Cc2cc3c(CN(C)C)c(O)ccc3nc2-1`, the concentration for half-maximal inhibition (IC50) is > 316 nM and 305 nM. Moreover, the viability, T/C (compound 0.000999 µM) is 116% and 95.5% and 102%. For the same compound, the viability, T/C (compound 0.00316 µM) is 96.2% and 89.7% and 95.8%. In addition, the viability, T/C (compound 0.00999 µM) is 128% and 70.9% and 96.4%. Also, the viability, T/C (compound 0.0316 µM) was 94.6% and 72% and 86.3%. In addition, the viability, T/C (compound 0.0999 µM) was 68.6% and 55% and 64.9%. Further, the viability, T/C (compound 0.316 µM) was 68.7% and 50.2% and 51.1%.

`CCc1c2c(nc3ccc(O)cc13)-c1cc3c(c(=O)n1C2)COC(=O)[C@]3(O)CC`: the concentration for half-maximal inhibition (IC50) is 17.3 nM and 8.3 nM and 23.2 nM. For the same compound, the viability, T/C (compound 0.000999 µM) was 72.2% and 58.7% and 67.3%. Where the note is “compound 0.00316 µM”, the viability, T/C was 58.9% and 53.5% and 66.5%. Further, the viability, T/C (compound 0.00999 µM) was 59.5% and 47.4% and 56.2%. Besides, the viability, T/C (compound 0.0316 µM) is 43.9% and 44.5% and 44.3%. Moreover, the viability, T/C (compound 0.0999 µM) is 28.2% and 31% and 38.2%. For the same compound, the viability, T/C (compound 0.316 µM) is 19.5% and 18.4% and 18.3%.
